Results on 2 compounds are retold here after ChEMBL document CHEMBL4840341, “Voatriafricanines A and B, Trimeric Vobasine-Aspidosperma-Aspidosperma Alkaloids from Voacanga africana” (J Nat Prod, 2021).

≈ marks a conversion by molar mass, not a printed value.

Common to all, as to format: functional
Experiment [1] deals with Mycolicibacterium smegmatis. Nature of the experiment: Antimycobacterial activity against Mycobacterium smegmatis CIP7326 assessed as inhibition of mycobacterial growth incubated for 24 hrs by broth microdilution method. On the technique in general: In broth dilution the organism is exposed to a series of concentrations in liquid medium.
Experiment [2] is described as follows: Antimycobacterial activity against Mycobacterium abscessus subsp. bolletii assessed as inhibition of mycobacterial growth incubated for 2 to 3 days by broth microdilution method. To be noted: Mycobacteroides abscessus; time 2-3 day.
A further experiment has as its system Pseudomonas aeruginosa. The experiment in a line: Antibacterial activity against Pseudomonas aeruginosa ATCC 15442 assessed as inhibition of bacterial growth incubated for 24 hrs by broth microdilution method.

As usually defined, the MIC is the least concentration at which growth counts as inhibited.

Regarding `CO[C@H]1/C=C/O[C@@]2(C)Oc3c(C)c(O)c4c(O)c(c(/C=N/N5CCN(C)CC5)c(O)c4c3C2=O)NC(=O)/C(C)=C\C=C\[C@H](C)[C@H](O)[C@@H](C)[C@@H](O)[C@@H](C)[C@H](OC(C)=O)[C@@H]1C` [RIFAMPIN], the MIC in experiment [1] and in experiment [2] was 0.1 µg/mL (≈ 0.122 µM) each time.
For the compound cetrimide, in the experiment on Pseudomonas aeruginosa, the MIC is 0.1 µg/mL.
